# According to patent publication US5180672A, “Ascorbate oxidase isolated from Acremonium sp. HI-25 ferm BP-3124” (Asahi Kasei Kogyo Kabushiki Kaisha, priority 1990, dated 1993):
# Read-outs that look alike come from different tables or passages of the source.
# Columns and labels:
# [1] = system: ascorbate oxidase produced by Acremonium sp. HI-25; type: biochemical; settings: for residual relative activities (%): 10 min, 1000 µM
# [2] = system: ascorbate oxidase from Acremonium sp. HI-25; settings: NaN3 0.2%, 2880 min
# [3] = system: ascorbate oxidase from Myrothecium verrucaria, hypha; settings: at 1 mM; printed as effective (50% at 1 mM); cited from earlier work
# [4] = target: T1, ascorbate oxidase from cucumber (Toyobo ASCORBATE OXIDASE, EC 1.10.3.3) (Cucumis sativus, UniProt P14133); settings: reference J. Biochem. 64, 189 (1968); Toyobo catalog; read-out: K m (L-ascorbate); cited from earlier work
# T1 sequence (P14133 34-587): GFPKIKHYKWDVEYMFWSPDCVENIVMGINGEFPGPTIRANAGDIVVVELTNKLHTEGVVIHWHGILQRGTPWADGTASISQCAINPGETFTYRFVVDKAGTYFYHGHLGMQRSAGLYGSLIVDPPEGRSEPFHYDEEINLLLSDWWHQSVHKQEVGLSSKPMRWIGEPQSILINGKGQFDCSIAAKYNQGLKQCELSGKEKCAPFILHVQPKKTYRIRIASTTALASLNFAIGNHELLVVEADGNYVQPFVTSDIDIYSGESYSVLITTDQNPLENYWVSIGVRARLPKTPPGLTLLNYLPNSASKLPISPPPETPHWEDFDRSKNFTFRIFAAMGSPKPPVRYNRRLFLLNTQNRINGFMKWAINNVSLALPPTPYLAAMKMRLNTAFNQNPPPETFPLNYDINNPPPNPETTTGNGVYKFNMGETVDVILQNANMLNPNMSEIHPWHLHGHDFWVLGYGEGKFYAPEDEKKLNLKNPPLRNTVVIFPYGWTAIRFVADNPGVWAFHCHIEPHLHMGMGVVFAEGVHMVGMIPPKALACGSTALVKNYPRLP
smiles,measurement,setting,value
[N-]=[N+]=[N-] [sodium azide],inactivation by inhibitor (in words),[1],inactivated
same,"relative activities, 100 as buffers only",[2]; PIPES buffer with 0.1 % BSA,78.4%
same,"relative activities, 100 as buffers only",[2]; Pi buffer with 0.1 % BSA,76.2%
same,"relative activities, 100 as buffers only",[2]; Tris buffer with 0.1 % BSA,78.6%
O=C(O)CN(CCN(CC(=O)O)CC(=O)O)CC(=O)O [EDTA],residual relative activities (%),[1],106%
"[Na+].[Na+].[S-2] [Na2 S, sodium sulfide]",residual relative activities (%),[1],3%
"CCN(CC)C(=S)[S-].[Na+] [sodium N,N-diethyldithiocarbamate]",residual relative activities (%),[1],101%
same,inhibition by inhibitor,[3],50%
O=C1O[C@H]([C@@H](O)CO)C(O)=C1O [L-ascorbate],Km,[4],250 µM
